This note sets out measurements from ChEMBL document CHEMBL3525934 (Drug Metab Dispos, 2013).

Type in all cases: ADME
What all share (settings): 0.5 h

The target of data set [1] is T1, Cytochrome P450 2C19 (Homo sapiens, UniProt P33261). The data set can be described thus: Drug metabolism in supersomes expressing human recombinant CYP2C19 assessed as enzyme-mediated clozapine-N-oxide metabolite formation at 10 uM after 30 mins measured per nmol of P450 by HPLC analysis.
The target of the next data set is T2, Cytochrome P450 1B1 (Homo sapiens, UniProt Q16678).
T2 sequence (Q16678 whole entry): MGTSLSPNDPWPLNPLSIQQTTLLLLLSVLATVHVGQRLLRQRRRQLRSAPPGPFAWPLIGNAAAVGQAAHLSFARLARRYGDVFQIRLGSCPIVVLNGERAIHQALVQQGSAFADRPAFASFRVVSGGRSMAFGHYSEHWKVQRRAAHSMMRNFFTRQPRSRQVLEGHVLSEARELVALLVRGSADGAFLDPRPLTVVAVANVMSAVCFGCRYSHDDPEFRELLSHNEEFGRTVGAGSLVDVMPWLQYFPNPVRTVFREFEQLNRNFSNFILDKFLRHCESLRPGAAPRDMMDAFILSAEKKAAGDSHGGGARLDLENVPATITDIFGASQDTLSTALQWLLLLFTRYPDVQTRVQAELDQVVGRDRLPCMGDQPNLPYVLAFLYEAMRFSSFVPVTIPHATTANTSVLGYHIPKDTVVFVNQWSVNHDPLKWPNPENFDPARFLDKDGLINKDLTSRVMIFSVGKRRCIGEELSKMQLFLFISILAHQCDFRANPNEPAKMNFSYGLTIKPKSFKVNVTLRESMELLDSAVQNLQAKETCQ
Put plainly: Drug metabolism in supersomes expressing human recombinant CYP1B1 assessed as enzyme-mediated total GSH conjugate formation at 10 uM after 30 mins measured per nmol of P450 by HPLC analysis in presence of GSH and hGST P1-1.

Data set [2] deals with T3, Cytochrome P450 1A2 (Homo sapiens, UniProt P05177).
T3 sequence (P05177 whole entry): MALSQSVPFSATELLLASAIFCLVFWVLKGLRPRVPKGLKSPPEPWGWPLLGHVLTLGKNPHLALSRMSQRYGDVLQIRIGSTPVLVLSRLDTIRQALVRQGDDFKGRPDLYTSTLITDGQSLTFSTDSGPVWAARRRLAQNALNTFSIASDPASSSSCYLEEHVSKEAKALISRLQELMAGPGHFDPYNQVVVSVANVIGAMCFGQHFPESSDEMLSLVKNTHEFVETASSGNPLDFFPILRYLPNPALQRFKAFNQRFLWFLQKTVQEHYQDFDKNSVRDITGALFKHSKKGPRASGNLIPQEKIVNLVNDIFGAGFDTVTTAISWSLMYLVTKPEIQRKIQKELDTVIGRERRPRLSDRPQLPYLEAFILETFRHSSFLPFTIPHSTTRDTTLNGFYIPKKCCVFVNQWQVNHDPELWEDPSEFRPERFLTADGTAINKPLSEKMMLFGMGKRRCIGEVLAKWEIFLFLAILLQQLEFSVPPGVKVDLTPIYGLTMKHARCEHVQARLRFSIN
Put plainly: Drug metabolism in supersomes expressing human recombinant CYP1A2 assessed as enzyme-mediated cyanide adduct formation at 100 uM after 30 mins measured per nmol of P450 by HPLC analysis in presence of KCN.

Data set [3] deals with T1, Cytochrome P450 2C19. The data set can be described thus: Drug metabolism in supersomes expressing human recombinant CYP2C19 assessed as enzyme-mediated N-desmethylclozapine metabolite formation at 100 uM after 30 mins measured per nmol of P450 by HPLC analysis.
The target in data set [4] is T3, Cytochrome P450 1A2. Put plainly: Drug metabolism in supersomes expressing human recombinant CYP1A2 assessed as enzyme-mediated N-desmethylclozapine metabolite formation at 100 uM after 30 mins measured per nmol of P450 by HPLC analysis.
The target of a further data set is Cytochrome P450 2D6 (Homo sapiens, UniProt P10635). Put plainly: Drug metabolism in supersomes expressing human recombinant CYP2D6 assessed as enzyme-mediated total GSH conjugate formation at 10 uM after 30 mins measured per nmol of P450 by HPLC analysis in presence of GSH and hGST P1-1.
Cytochrome P450 2D6, sequence (P10635 whole entry): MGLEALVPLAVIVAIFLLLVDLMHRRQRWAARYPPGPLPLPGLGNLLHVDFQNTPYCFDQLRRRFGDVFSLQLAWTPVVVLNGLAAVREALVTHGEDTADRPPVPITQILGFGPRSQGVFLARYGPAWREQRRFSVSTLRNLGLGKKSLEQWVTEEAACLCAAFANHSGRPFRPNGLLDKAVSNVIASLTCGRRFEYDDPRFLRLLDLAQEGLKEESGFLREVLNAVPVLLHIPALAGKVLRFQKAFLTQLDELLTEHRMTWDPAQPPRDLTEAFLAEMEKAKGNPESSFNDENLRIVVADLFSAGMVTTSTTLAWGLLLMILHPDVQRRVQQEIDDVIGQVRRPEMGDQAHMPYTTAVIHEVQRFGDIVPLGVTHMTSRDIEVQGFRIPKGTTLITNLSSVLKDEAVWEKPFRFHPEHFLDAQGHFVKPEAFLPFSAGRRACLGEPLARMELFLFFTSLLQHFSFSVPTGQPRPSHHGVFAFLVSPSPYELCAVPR

SMILES strings stand for the structures.

T1 sequence (P33261 whole entry): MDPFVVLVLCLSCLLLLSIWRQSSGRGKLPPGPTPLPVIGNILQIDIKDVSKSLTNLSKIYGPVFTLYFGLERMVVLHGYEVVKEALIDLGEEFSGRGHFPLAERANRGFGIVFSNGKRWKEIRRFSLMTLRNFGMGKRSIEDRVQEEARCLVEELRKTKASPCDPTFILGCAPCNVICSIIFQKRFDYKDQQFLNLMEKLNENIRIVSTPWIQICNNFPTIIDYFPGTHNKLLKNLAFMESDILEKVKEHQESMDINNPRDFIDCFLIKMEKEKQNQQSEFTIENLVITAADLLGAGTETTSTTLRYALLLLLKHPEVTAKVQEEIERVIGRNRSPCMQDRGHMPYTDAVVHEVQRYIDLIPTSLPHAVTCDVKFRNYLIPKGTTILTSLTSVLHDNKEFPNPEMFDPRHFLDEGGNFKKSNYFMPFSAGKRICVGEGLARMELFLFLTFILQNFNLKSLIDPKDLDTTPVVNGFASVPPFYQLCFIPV

Take `CN1CCN(C2=Nc3cc(Cl)ccc3Nc3ccccc32)CC1` [CLOZAPINE]: the Drug metabolism was 0.71 nmol/min/nmol P450 at Cytochrome P450 2C19 [1]; 0.15 nmol/min at Cytochrome P450 1B1; 0.2 nmol/min at Cytochrome P450 1A2 [2]; 5.11 nmol/min at Cytochrome P450 2C19 [3]; 8.71 nmol/min on Cytochrome P450 1A2 [4]; 0.47 nmol/min at Cytochrome P450 2D6.
